Source: ChEMBL document CHEMBL1201862, “PubChem BioAssay data set” (2004)
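Values below derive from 48-hour exposures of cells grown in 96-well plates, with endpoints linearly interpolated between the two concentrations bracketing the appropriate inhibition level. GI50 is the concentration that inhibits growth by half.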 Activity calls are given as the source filed them. No stated cut-off is given here; in the data, active = GI50 up to about 1.1 µM and inactive = higher.

Experiments:
Experiment in all cases: NCI tumour cell line growth inhibition, 48 h
[1] = test system: HCT-15
[2] = test system: PC-3
[3] = test system: RXF 393
[4] = test system: TK-10
[5] = test system: NCI-H226
[6] = test system: SNB-75
[7] = test system: MOLT-4
[8] = test system: DU-145
[9] = test system: SF-295
[10] = test system: OVCAR-8
[11] = test system: OVCAR-5
[12] = test system: HOP-62
[13] = test system: NCI-H522
[14] = test system: OVCAR-3
[15] = test system: RPMI-8226
[16] = test system: SF-539
[17] = test system: A498
[18] = test system: MDA-N
[19] = test system: KM12
[20] = test system: HCT-116
[21] = test system: UACC-62
[22] = test system: SN12C
[23] = test system: SK-OV-3
[24] = test system: 786-0
[25] = test system: CCRF-CEM
[26] = test system: MDA-MB-231
[27] = test system: T47D
[28] = test system: Malme-3M
[29] = test system: OVCAR-4
[30] = test system: HL-60
[31] = test system: SK-MEL-28
[32] = test system: SK-MEL-2
[33] = test system: EKVX
[34] = test system: COLO 205
[35] = test system: SR
[36] = test system: UACC-257
[37] = test system: HCC 2998
[38] = test system: LOX IMVI
[39] = test system: NCI-H460
[40] = test system: SNB-19
[41] = test system: MDA-MB-435
[42] = test system: NCI/ADR-RES
[43] = test system: ACHN
[44] = test system: SK-MEL-5
[45] = test system: Hs-578T
[46] = test system: HT-29
[47] = test system: HOP-92
[48] = test system: A549
[49] = test system: K562
[50] = test system: M14
[51] = test system: NCI-H23
[52] = test system: SF-268
[53] = test system: IGROV-1
[54] = test system: UO-31
[55] = test system: U-251
[56] = test system: CAKI-1
[57] = test system: SW-620
[58] = test system: MCF7

**Q.** Which results are given for `CCOC(=O)/C=C(/N=P(c1ccccc1)(c1ccccc1)c1ccccc1)C(F)(F)F`?
**A.** GI50 [1]: > 10 µM; GI50 [2]: > 10 µM (inactive); GI50 [3]: > 10 µM (inactive); GI50 [4]: > 10 µM (inactive); GI50 [5]: > 10 µM (inactive); GI50 [6]: > 10 µM (inactive); GI50 [7]: > 10 µM (inactive); GI50 [8]: > 10 µM (inactive); GI50 [9]: > 10 µM (inactive); GI50 [10]: > 10 µM (inactive); GI50 [11]: > 10 µM (inactive); GI50 [12]: > 10 µM (inactive); GI50 [13]: 61.9 µM (inactive); GI50 [14]: > 10 µM (inactive); GI50 [15]: > 10 µM (inactive); GI50 [16]: > 10 µM (inactive); GI50 [17]: > 10 µM (inactive); GI50 [18]: > 10 µM (inactive); GI50 [19]: > 10 µM (inactive); GI50 [20]: > 10 µM (inactive); GI50 [21]: 5.9 µM (inactive); GI50 [22]: > 10 µM (inactive); GI50 [23]: > 100 µM (inactive); GI50 [24]: > 10 µM (inactive); GI50 [25]: > 10 µM (inactive); GI50 [26]: > 10 µM (inactive); GI50 [27]: 22.1 µM (inactive); GI50 [28]: > 10 µM (inactive); GI50 [29]: > 10 µM (inactive); GI50 [30]: > 10 µM (inactive); GI50 [31]: > 10 µM (inactive); GI50 [32]: > 10 µM (inactive); GI50 [33]: > 10 µM (inactive); GI50 [34]: > 10 µM (inactive); GI50 [35]: > 10 µM (inactive); GI50 [36]: > 10 µM (inactive); GI50 [37]: 22 µM (inactive); GI50 [38]: > 10 µM (inactive); GI50 [39]: > 10 µM (inactive); GI50 [40]: > 10 µM (inactive); GI50 [41]: > 10 µM (inactive); GI50 [42]: > 10 µM (inactive); GI50 [43]: > 10 µM (inactive); GI50 [44]: > 10 µM (inactive); GI50 [45]: > 10 µM (inactive); GI50 [46]: > 10 µM (inactive); GI50 [47]: 1.44 µM (inactive); GI50 [48]: > 10 µM (inactive); GI50 [49]: > 10 µM (inactive); GI50 [50]: > 10 µM (inactive); GI50 [51]: > 10 µM (inactive); GI50 [52]: > 10 µM (inactive); GI50 [53]: > 10 µM (inactive); GI50 [54]: > 100 µM (inactive)

**Q.** `O=c1cc(-c2ccc(O)cc2)n(C2CC2)c2ccccc12` was tested. Which GI50 [1] did it give?
**A.** 4.08 µM

**Q.** And the GI50 [2]?
**A.** 9.44 µM (inactive)

**Q.** What about the GI50 [3] of the same molecule?
**A.** 2.82 µM (inactive)

**Q.** And the GI50 [55]?
**A.** 5.31 µM (inactive)

**Q.** What about the GI50 [5] of the same molecule?
**A.** 2.67 µM (inactive)

**Q.** And the GI50 [7]?
**A.** 50.9 µM (inactive)

**Q.** What about the GI50 [8] of the same molecule?
**A.** 3.64 µM (inactive)

**Q.** And the GI50 [56]?
**A.** 4.42 µM (inactive)

**Q.** And the GI50 [9]?
**A.** 3.46 µM (inactive)

**Q.** What about the GI50 [10] of the same molecule?
**A.** 5.31 µM (inactive)

**Q.** And the GI50 [11]?
**A.** 3.64 µM (inactive)

**Q.** What about the GI50 [12] of the same molecule?
**A.** 4.41 µM (inactive)

**Q.** And the GI50 [13]?
**A.** 3.18 µM (inactive)

**Q.** What about the GI50 [14] of the same molecule?
**A.** 4.23 µM (inactive)

**Q.** And the GI50 [15]?
**A.** 3.35 µM (inactive)

**Q.** And the GI50 [16]?
**A.** 5.38 µM (inactive)

**Q.** What about the GI50 [18] of the same molecule?
**A.** 10.6 µM (inactive)

**Q.** And the GI50 [19]?
**A.** 3.45 µM (inactive)

**Q.** What about the GI50 [20] of the same molecule?
**A.** 2.75 µM (inactive)

**Q.** What about the GI50 [21] of the same molecule?
**A.** 3.91 µM (inactive)

**Q.** And the GI50 [22]?
**A.** 6.01 µM (inactive)

**Q.** And the GI50 [23]?
**A.** 9.08 µM (inactive)

**Q.** And the GI50 [24]?
**A.** 4.06 µM (inactive)

**Q.** What about the GI50 [25] of the same molecule?
**A.** 7.16 µM (inactive)

**Q.** What about the GI50 [26] of the same molecule?
**A.** 8.47 µM (inactive)

**Q.** What about the GI50 [27] of the same molecule?
**A.** 3.96 µM (inactive)

**Q.** What about the GI50 [30] of the same molecule?
**A.** 19.7 µM (inactive)

**Q.** What about the GI50 [32] of the same molecule?
**A.** 2.77 µM (inactive)

**Q.** And the GI50 [34]?
**A.** 2.64 µM (inactive)

**Q.** And the GI50 [35]?
**A.** 7.43 µM (inactive)

**Q.** And the GI50 [36]?
**A.** 10.2 µM (inactive)

**Q.** And the GI50 [38]?
**A.** 4.67 µM (inactive)

**Q.** What about the GI50 [39] of the same molecule?
**A.** 3.76 µM (inactive)

**Q.** And the GI50 [40]?
**A.** 5.08 µM (inactive)

**Q.** What about the GI50 [41] of the same molecule?
**A.** 4.83 µM (inactive)

**Q.** And the GI50 [42]?
**A.** 11.9 µM (inactive)

**Q.** What about the GI50 [43] of the same molecule?
**A.** 2.47 µM (inactive)

**Q.** And the GI50 [57]?
**A.** 5.05 µM (inactive)

**Q.** And the GI50 [44]?
**A.** 6.4 µM (inactive)

**Q.** What about the GI50 [58] of the same molecule?
**A.** 4.66 µM (inactive)

**Q.** And the GI50 [45]?
**A.** 5.41 µM (inactive)

**Q.** What about the GI50 [46] of the same molecule?
**A.** 1.57 µM (inactive)

**Q.** What about the GI50 [47] of the same molecule?
**A.** 3.52 µM (inactive)

**Q.** What about the GI50 [48] of the same molecule?
**A.** 4.52 µM (inactive)

**Q.** And the GI50 [49]?
**A.** 7.87 µM (inactive)

**Q.** What about the GI50 [50] of the same molecule?
**A.** 6.89 µM (inactive)

**Q.** What about the GI50 [51] of the same molecule?
**A.** 8.73 µM (inactive)

**Q.** And the GI50 [52]?
**A.** 7.29 µM (inactive)

**Q.** And the GI50 [53]?
**A.** 5.3 µM (inactive)

**Q.** And the GI50 [54]?
**A.** 4.02 µM (inactive)

**Q.** What does the source list for `O=C1c2ccccc2C(=O)N1CCc1ncc[nH]1`?
**A.** GI50 [1]: > 100 µM; GI50 [2]: > 100 µM (inactive); GI50 [4]: > 100 µM (inactive); GI50 [7]: > 100 µM (inactive); GI50 [8]: > 100 µM (inactive); GI50 [56]: > 100 µM (inactive); GI50 [9]: > 100 µM (inactive); GI50 [10]: > 100 µM (inactive); GI50 [11]: > 100 µM (inactive); GI50 [13]: > 100 µM (inactive); GI50 [14]: > 100 µM (inactive); GI50 [15]: > 100 µM (inactive); GI50 [16]: > 100 µM (inactive); GI50 [18]: > 100 µM (inactive); GI50 [19]: > 100 µM (inactive); GI50 [20]: > 100 µM (inactive); GI50 [21]: > 100 µM (inactive); GI50 [22]: > 100 µM (inactive); GI50 [24]: > 100 µM (inactive); GI50 [25]: > 100 µM (inactive); GI50 [27]: > 100 µM (inactive); GI50 [31]: > 100 µM (inactive); GI50 [32]: > 100 µM (inactive); GI50 [33]: > 100 µM (inactive); GI50 [34]: > 100 µM (inactive); GI50 [35]: > 100 µM (inactive); GI50 [36]: > 100 µM (inactive); GI50 [38]: > 100 µM (inactive); GI50 [39]: > 100 µM (inactive); GI50 [40]: > 100 µM (inactive); GI50 [41]: > 100 µM (inactive); GI50 [42]: > 100 µM (inactive); GI50 [43]: > 100 µM (inactive); GI50 [57]: > 100 µM (inactive); GI50 [44]: > 100 µM (inactive); GI50 [58]: > 100 µM (inactive); GI50 [45]: > 100 µM (inactive); GI50 [46]: > 100 µM (inactive); GI50 [47]: > 100 µM (inactive); GI50 [48]: > 100 µM (inactive); GI50 [49]: > 100 µM (inactive); GI50 [50]: > 100 µM (inactive); GI50 [51]: > 100 µM (inactive); GI50 [52]: > 100 µM (inactive); GI50 [53]: > 100 µM (inactive); GI50 [54]: > 100 µM (inactive)
